Assay results from patent US8987273B2, “Substituted imidazo[1,2-B]pyridazines” (Bayer Intellectual Property GmbH, priority 2010, dated 2015).
Structures can show the parent of a compound that is named as a salt.

How the values were obtained:
[1] = target: His-tagged human recombinant kinase full-length Akt1 (Homo sapiens (Human), UniProt P31749); assay: Akt1 kinase assay (TR-FRET); assay type: biochemical; details: 10 μM ATP; median
From the text: Akt1 inhibitory activity of compounds of the present invention was quantified employing the Akt1 TR-FRET assay as described in the following paragraphs. His-tagged human recombinant kinase full-length Akt1 expressed in insect cells was purchased form Invitrogen (part number PV 3599). As substrate for the kinase reaction the biotinylated peptide biotin-Ahx-[…] (C-terminus in amide form) was used which can be purchased e.g. from the company Biosynthan GmbH (Berlin-Buch, Germany).
(§1) For the assay 50 nl of a 100 fold concentrated solution of the test compound in DMSO was pipetted into a black low volume 384 well microtiter plate (Greiner Bio-One, Frickenhausen, Germany), 2 μl of a solution of Akt1 in assay buffer [50 mM TRIS/HCl pH 7.5, 5 mM MgCl2, 1 mM dithiothreitol, 0.02% (v/v) Triton X-100 (Sigma)] were added and the mixture was incubated for 15 min at 22° C. to allow pre-binding of the test compounds to the enzyme before the start of the kinase reaction. Then the kinase reaction was started by the addition of 3 μl of a solution of adenosine-tri-phosphate (ATP, 16.7 μM=>final conc. in the 5 μl assay volume is 10 μM) and substrate (1.67 μM=>final conc. in the 5 μl assay volume is 1 μM) in assay buffer and the resulting mixture was incubated for a reaction time of 60 min at 22° C. The concentration of Akt1 in the assay was adjusted depending of the activity of the enzyme lot and was chosen appropriate to have the assay in the linear range, typical enzyme concentrations were in the range of about 0.05 ng/μl (final conc. in the 5 μl assay volume).
(§2) The reaction was stopped by the addition of 5 μl of a solution of HTRF detection reagents (200 nM streptavidine-XL665 [Cisbio] and 1.5 nM anti-phosho-Serine antibody [Millipore, cat. #35-001] and 0.75 nM LANCE Eu-W 1024 labeled anti-mouse IgG antibody [Perkin Elmer]) in an aqueous EDTA-solution (100 mM EDTA, 0.1% (w/v) bovine serum albumin in 50 mM HEPES/NaOH pH 7.5).
(§3) The resulting mixture was incubated 1 h at 22° C. to allow the binding of the biotinylated phosphorylated peptide to the streptavidine-XL665 and the antibodies. Subsequently the amount of phosphorylated substrate was evaluated by measurement of the resonance energy transfer from the anti-mouse-IgG-Eu-Chelate to the streptavidine-XL665. Therefore, the fluorescence emissions at 620 nm and 665 nm after excitation at 350 nm was measured in a HTRF reader, e.g. a Rubystar (BMG Labtechnologies, Offenburg, Germany) or a Viewlux (Perkin-Elmer). The ratio of the emissions at 665 nm and at […] was taken as the measure for the amount of phosphorylated substrate. The data were normalised (enzyme reaction without inhibitor=0% inhibition, all other assay components but no enzyme=100% inhibition).

[2] = target: His-tagged human recombinant kinase full-length Akt2 (Homo sapiens (Human), UniProt P31751); assay: Akt2 kinase assay (TR-FRET); assay type: biochemical; details: 10 μM ATP; median
His-tagged human recombinant kinase full-length Akt2, sequence (P31751 whole entry): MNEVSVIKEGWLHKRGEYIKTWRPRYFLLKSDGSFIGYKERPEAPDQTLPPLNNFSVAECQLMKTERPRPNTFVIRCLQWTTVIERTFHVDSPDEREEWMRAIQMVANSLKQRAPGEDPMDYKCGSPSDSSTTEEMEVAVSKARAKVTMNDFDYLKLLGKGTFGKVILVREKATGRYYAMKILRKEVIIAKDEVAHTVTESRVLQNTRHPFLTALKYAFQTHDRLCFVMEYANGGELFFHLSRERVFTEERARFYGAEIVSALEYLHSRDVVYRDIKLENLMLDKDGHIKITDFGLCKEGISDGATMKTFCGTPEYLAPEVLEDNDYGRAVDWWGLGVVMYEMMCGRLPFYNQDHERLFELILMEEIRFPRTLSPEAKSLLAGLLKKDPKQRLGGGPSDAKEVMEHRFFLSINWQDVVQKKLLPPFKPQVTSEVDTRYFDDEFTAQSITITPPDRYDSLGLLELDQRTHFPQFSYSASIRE
From the text: Akt2 inhibitory activity of compounds of the present invention was quantified employing the Akt2 TR-FRET assay as described in the following paragraphs.
His-tagged human recombinant kinase full-length Akt2 expressed in insect cells and activated by PDK1 was purchased form Invitrogen (part number PV 3975). As substrate for the kinase reaction the biotinylated peptide biotin-Ahx-[…] (C-terminus in amide form) was used which can be purchased e.g. from the company Biosynthan GmbH (Berlin-Buch, Germany).
as §1, with “Akt2” for “Akt1”, “0.2” for “0.05”
as §2, with “0.1%/w/v\” for “0.1% (w/v)”
as §3, with “TR-FRET” for “HTRF”

[3] = test system: phospho-AKT at S473 in KPL4 breast tumour cell line; assay: Cellular p-AKT1/2/3-S473 assay; assay type: cell-based; details: KPL4 cells, 2 hours treatment; median; read-out: pAKT-S743 median IC50
Method: The molecular mechanism of action was investigated in a set of experiments to assess the inhibition of the PI3K-AKT-mTOR pathway in responsive cell lines such as KPL4 breast tumour cell line (PIK3CAH1047R, HER2O/E and hormone independent). The phospho-substrates of PI3K-AKT-mTOR axis were used as the read-outs to reflect pathway inhibition. Cells were seeded at 60-80% confluency per well in 96-well cell culture plates. After overnight incubation at 37° C. 5% CO2, cells were treated with compounds and vehicle at 37° C. for 2 hours. […] All measurements where at least done in duplicates and confirmed by independent repetition.
Alternatively pAKT-S473 was measured using the “Akt Duplex” of the MULTI-SPOT® Assay System (Fa. Meso Scale Discovery, Cat# N41100B-1) following manufacturers instructions. Each assay used 20 μg of protein extract and measured total AKT and p-AKT content simultaneously in one well. All measurements where at least done in duplicates and confirmed by independent repetition. Values for P-AKT are expressed as percentage of P-AKT level compared to total-AKT content of the extracts.

KPL-4 cells = assay: Tumor cell proliferation assay (CellTiter-Glo); assay type: cell-based; details: KPL4; 72 h drug exposure
Method: Compounds were tested in a cell-based assay that measures the capacity of the compounds to inhibit tumour cell proliferation following a 72 h drug exposure. Cell viability is determined using CellTiter-Glow® (CTG, Promega, cat# G757112/3). The CellTiter-Glo® Luminescent Cell Viability Assay is a homogeneous method to determine the number of viable cells in culture. Detection is based on using the luciferase reaction to measure the amount of ATP from viable cells. The amount of ATP in cells correlates with cell viability. Within minutes after a loss of membrane integrity, cells lose the ability to synthesize ATP, and endogenous ATPases destroy any remaining ATP; thus the levels of ATP fall precipitously.
Cells were plated at 3000-5000 cells/well (depending on the cell lines) in 90 μL growth medium on MTPs (Corning; #3603, black plate, clear flat bottom). For each cell line assayed, cells were plated onto a separate plate for determination of […] at t=0 hour and t=72 hour time points. Following overnight incubation at 37° C., chemiluminescence values for the t=0 samples were determined after adding 10 μl medium and 100 μl CTG solution according to manufacture protocol. Plates for the t=72 hour time points were treated with compounds diluted into growth medium at ten times final concentration added in 10 μL to the cell culture plate. Cells were then incubated for 72 hours at 37° C. Chemiluminescence values for the t=72 hour samples were determined. For data analysis, briefly, data from 24 h plate where used to reflect 100% inhibition of growth (“Ci”) and DMSO control for uninhibited growth (“C0”) and analyzed using MTS software package for IC50 and Hill coefficient. Experiments were controlled using a reference compound as standard.

His-tagged human recombinant kinase full-length Akt1, sequence (P31749 whole entry): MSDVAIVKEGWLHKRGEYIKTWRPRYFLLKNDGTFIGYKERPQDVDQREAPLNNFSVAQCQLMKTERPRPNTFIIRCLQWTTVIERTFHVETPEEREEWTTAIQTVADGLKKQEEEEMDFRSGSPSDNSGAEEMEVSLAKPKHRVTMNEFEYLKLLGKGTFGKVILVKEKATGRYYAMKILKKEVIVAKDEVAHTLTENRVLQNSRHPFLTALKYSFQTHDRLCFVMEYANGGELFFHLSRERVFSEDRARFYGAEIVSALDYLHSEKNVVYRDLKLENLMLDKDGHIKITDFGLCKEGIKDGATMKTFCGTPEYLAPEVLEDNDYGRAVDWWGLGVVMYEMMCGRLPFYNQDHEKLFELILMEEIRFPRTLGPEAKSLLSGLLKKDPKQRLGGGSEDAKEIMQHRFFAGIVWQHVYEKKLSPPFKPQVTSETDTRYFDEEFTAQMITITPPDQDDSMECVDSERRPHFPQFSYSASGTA

Row | IC50 [1] | IC50 [2] | IC50 [3] | IC50 (KPL-4 cells) | SMILES
1 | 5 nM | 82 nM | 1550 nM | 1710 nM | N#Cc1cccc(-c2cnc3cc(-c4ccccc4)c(-c4ccc(C5(N)CCC5)cc4)nn23)c1 [Example 3-0, 3-{6-[4-(1-Amino-cyclobutyl)-phenyl]-7-phenyl-imidazo[1,2-b]pyridazin-3-yl}-benzonitrile]
2 | 6 nM | 37 nM | 30 nM | 1310 nM | NC1(c2ccc(-c3nn4c(-c5cccc(CO)c5)cnc4cc3-c3ccccc3)cc2)CCC1 [Example 4-5, (3-{6-[4-(1-Amino-cyclobutyl)-phenyl]-7-phenyl-imidazo[1,2-b]pyridazin-3-yl}-phenyl)-methanol]
3 | 19 nM | 123 nM | 30 nM | 1590 nM | NC1(c2ccc(-c3nn4c(-c5ccc(CO)cc5)cnc4cc3-c3ccccc3)cc2)CCC1 [Example 4-6, (4-{6-[4-(1-Amino-cyclobutyl)-phenyl]-7-phenyl-imidazo[1,2-b]pyridazin-3-yl}-phenyl)-methanol formiate]
4 | 47 nM | 151 nM | 160 nM | 1750 nM | NC1(c2ccc(-c3nn4c(-c5ccc(S(N)(=O)=O)cc5)cnc4cc3-c3ccccc3)cc2)CCC1 [Example 4-7, 4-{6-[4-(1-Amino-cyclobutyl)-phenyl]-7-phenyl-imidazo[1,2-b]pyridazin-3-yl}-benzenesulfonamide hydrocloride]
5 | 74 nM | 264 nM | 110 nM | 2380 nM | NC1(c2ccc(-c3nn4c(Br)cnc4cc3-c3ccccc3)cc2)CCC1 [Example 4-8, 1-[4-(3-Bromo-7-phenyl-imidazo[1,2-b]pyridazin-6-yl)-phenyl]-cyclobutylamine hydrochloride]
6 | 27 nM | 118 nM | 70 nM | 1260 nM | NC(=O)c1ccc(-c2cnc3cc(-c4ccccc4)c(-c4ccc(C5(N)CCC5)cc4)nn23)cc1 [Example 4-10, 4-{6-[4-(1-Amino-cyclobutyl)-phenyl]-7-phenyl-imidazo[1,2-b]pyridazin-3-yl}-benzamide hydrochloride]
7 | 13 nM | 68 nM | 20 nM | 1410 nM | NC(=O)c1cccc(-c2cnc3cc(-c4ccccc4)c(-c4ccc(C5(N)CCC5)cc4)nn23)c1 [Example 4-11, 3-{6-[4-(1-Amino-cyclobutyl)-phenyl]-7-phenyl-imidazo[1,2-b]pyridazin-3-yl}-benzamide hydrochloride]
8 | 9 nM | 67 nM | 10 nM | 550 nM | NC1(c2ccc(-c3nn4c(-c5cn[nH]c5)cnc4cc3-c3ccccc3)cc2)CCC1 [Example 4-12, 1-{4-[7-Phenyl-3-(1H-pyrazol-4-yl)-imidazo[1,2-b]pyridazin-6-yl]-phenyl}-cyclobutylamine]
9 | 146 nM | 431 nM | 160 nM | 3360 nM | NC1(c2ccc(-c3nn4c(-c5ccc(O)nc5)cnc4cc3-c3ccccc3)cc2)CCC1 [Example 4-13, 5-{6-[4-(1-Amino-cyclobutyl)-phenyl]-7-phenyl-imidazo[1,2-b]pyridazin-3-yl}-pyridin-2-ol]
10 | 19 nM | 115 nM | 920 nM | 6020 nM | COC(=O)c1ccc(-c2cnc3cc(-c4ccccc4)c(-c4ccc(C5(N)CCC5)cc4)nn23)cn1 [Example 4-14, 5-{6-[4-(1-Amino-cyclobutyl)-phenyl]-7-phenyl-imidazo[1,2-b]pyridazin-3-yl}-pyridine-2-carboxylic acid methyl ester]

Row | SMILES | IC50 [1] | IC50 [2] | IC50 [3] | IC50 (KPL-4 cells)
11 | NC1(c2ccc(-c3nn4c(-c5ccc(F)c(CO)c5)cnc4cc3-c3ccccc3)cc2)CCC1 [Example 4-9, (5-{6-[4-(1-Amino-cyclobutyl)-phenyl]-7-phenyl-imidazo[1,2-b]pyridazin-3-yl}-2-fluorophenyl)-methanol hydrochloride] | 9 nM | 92 nM | 40 nM | 1560 nM
